PubChem BioAssay AID256 (DTP/NCI, 2004)
Several values for one entry are separate records, joined by “and”; a condition that tells them apart may be missing. Equal values may be shown once. Toxic doses and inconclusive results are not listed. How the source made its calls: active means survival T/C of 150% or more; inactive means T/C below 125% in these data.

Test system: CD2F1 mice, L1210 leukemia ip, survival T/C
Assay: NCI In Vivo Anticancer Drug Screen. Data for tumor model L1210 Leukemia (intraperitoneal) in CD2F1 (CDF1) mice
Conditions: higher = longer survival
Procedure, shortened: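 Transplantable tumor in mice; compound-treated vs vehicle-treated groups. Read-out = treated/control ratio of the measured endpoint.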

[1] = endpoint: mean survival time, dose: 100.0 mg/kg/injection, schedule: Q01DX001 (ip), vehicle: saline
[2] = endpoint: mean survival time, dose: 200.0 mg/kg/injection, schedule: Q01DX001 (ip), vehicle: saline
[3] = endpoint: mean survival time, dose: 100.0 mg/kg/injection, schedule: Q01DX009 (ip), vehicle: saline with Tween-80
[4] = endpoint: mean survival time, dose: 200.0 mg/kg/injection, schedule: Q01DX009 (ip), vehicle: saline with Tween-80
[5] = endpoint: mean survival time, dose: 400.0 mg/kg/injection, schedule: Q01DX009 (ip), vehicle: saline with Tween-80
[6] = endpoint: mean survival time, dose: 100.0 mg/kg/injection, schedule: Q04DX003 (ip), vehicle: saline with Tween-80
[7] = endpoint: mean survival time, dose: 200.0 mg/kg/injection, schedule: Q04DX003 (ip), vehicle: saline with Tween-80
[8] = endpoint: mean survival time, dose: 400.0 mg/kg/injection, schedule: Q04DX003 (ip), vehicle: saline with Tween-80
[9] = endpoint: mean survival time, dose: 100.0 mg/kg/injection, schedule: Q01DX009 (ip), vehicle: saline
[10] = endpoint: mean survival time, dose: 200.0 mg/kg/injection, schedule: Q01DX009 (ip), vehicle: saline
[11] = endpoint: mean survival time, dose: 400.0 mg/kg/injection, schedule: Q01DX009 (ip), vehicle: saline
[12] = endpoint: mean survival time, dose: 100.0 mg/kg/injection, schedule: Q04DX002 (ip), vehicle: saline with Tween-80
[13] = endpoint: mean survival time, dose: 200.0 mg/kg/injection, schedule: Q04DX002 (ip), vehicle: saline with Tween-80
[14] = endpoint: mean survival time, dose: 50.0 mg/kg/injection, schedule: Q04DX002 (ip), vehicle: saline with Tween-80
[15] = endpoint: mean survival time, dose: 25.0 mg/kg/injection, schedule: Q01DX009 (ip), vehicle: saline with Tween-80
[16] = endpoint: mean survival time, dose: 50.0 mg/kg/injection, schedule: Q01DX009 (ip), vehicle: saline with Tween-80

Measured: T/C

COc1cc(Br)c(CC2c3cc(OC)c(OC)cc3CCN2C)cc1OC (stereo not given)
inactive: [1] 101 % of control | [2] 101 % of control

CC(C)(C)OC(=O)NC(CCC(=O)O)C(=O)OC(C)(C)C (stereo not given)
inactive: [3] 102 % of control | [4] 93 % of control | [5] 92 % of control

O=C1CCC(=O)N1Br
inactive: [3] 101 % of control | [6] 100 % of control | [4] 96 % of control | [7] 95 % of control | [5] 101 % of control | [8] 91 % of control

CCC(=O)c1ccc(OC(C)=O)c(OC(C)=O)c1
inactive: [9] 96 % of control | [10] 96 % of control | [11] 96 % of control

N/C(Cc1ccc(N)cc1)=N\O
inactive: [6] 110 % of control

c1ccc(-c2nc(-c3nn[nH]n3)c3ccccc3n2)cc1
inactive: [1] 89 % of control | [2] 97 % of control

CCOC(=O)CCN1CCCC2(C1)OCCO2
inactive: endpoint: mean survival time, dose: 12.5 mg/kg/injection, schedule: Q04DX002 (ip), vehicle: saline 109 % of control | endpoint: mean survival time, dose: 25.0 mg/kg/injection, schedule: Q04DX002 (ip), vehicle: saline 95 % of control | endpoint: mean survival time, dose: 50.0 mg/kg/injection, schedule: Q04DX002 (ip), vehicle: saline 98 % of control

COC(=O)c1ccccc1N=NNc1ccc(C(F)(F)F)c([N+](=O)[O-])c1
inactive: [3] 103 % of control | [4] 95 % of control | [5] 95 % of control

CCCOP(=O)(CCl)OCCC
inactive: [9] 95 % of control | [10] 100 % of control | [11] 97 % of control

COc1cc(/C=C/C(C)=N/Nc2ccc([N+](=O)[O-])cc2[N+](=O)[O-])ccc1O
inactive: [6] 95 % of control | [7] 94 % of control | [8] 95 % of control

CC(C)(C)C1CCC(OC(=O)c2ccccc2C(=O)O)CC1 (stereo not given)
inactive: [3] 100 % of control | [6] 100 % of control | [4] 97 % of control | [7] 98 % of control | [5] 89 % of control | [8] 96 % of control

CCN(CC)C1=C(c2ccccc2)C(=O)C(=O)C1c1ccccc1 (stereo not given)
inactive: endpoint: mean survival time, dose: 100.0 mg/kg/injection, schedule: Q01DX001 (ip), vehicle: saline with Tween-80 103 % of control | endpoint: mean survival time, dose: 200.0 mg/kg/injection, schedule: Q01DX001 (ip), vehicle: saline with Tween-80 107 % of control | endpoint: mean survival time, dose: 400.0 mg/kg/injection, schedule: Q01DX001 (ip), vehicle: saline with Tween-80 94 % of control

Cc1cccc[n+]1CC(=O)c1ccc(-c2ccc(C(=O)C[n+]3ccccc3C)cc2)cc1
inactive: endpoint: mean survival time, dose: 0.15 mg/kg/injection, schedule: Q04DX003 (ip), vehicle: Klucel (hydroxypropylcellulose) (HPC) 94 % of control | endpoint: mean survival time, dose: 0.3 mg/kg/injection, schedule: Q04DX003 (ip), vehicle: Klucel (hydroxypropylcellulose) (HPC) 95 % of control | endpoint: mean survival time, dose: 0.6 mg/kg/injection, schedule: Q04DX003 (ip), vehicle: Klucel (hydroxypropylcellulose) (HPC) 97 % of control

O=C1c2ccccc2C(=O)N1c1nc2ccccc2s1
inactive: [12] 96 % of control | [13] 89 % of control | endpoint: mean survival time, dose: 400.0 mg/kg/injection, schedule: Q04DX002 (ip), vehicle: saline with Tween-80 100 % of control

N#CCN(CC#N)CCN(CC#N)CC#N
inactive: [3] 92 % of control | [6] 97 % of control | [4] 93 % of control | [7] 97 % of control | [5] 104 % of control | [8] 97 % of control

COc1ccc2c(c1[N+](=O)[O-])CC[C@@H]1[C@@H]2CC[C@]2(C)C(=O)CC[C@@H]12
inactive: endpoint: median survival time, dose: 50.0 mg/kg/injection, schedule: Q01DX009 (ip), vehicle: saline with Tween-80 103 % of control | endpoint: median survival time, dose: 100.0 mg/kg/injection, schedule: Q01DX009 (ip), vehicle: saline with Tween-80 103 % of control | endpoint: median survival time, dose: 200.0 mg/kg/injection, schedule: Q01DX009 (ip), vehicle: saline with Tween-80 102 % of control | endpoint: median survival time, dose: 400.0 mg/kg/injection, schedule: Q01DX009 (ip), vehicle: saline with Tween-80 103 % of control | endpoint: median survival time, dose: 800.0 mg/kg/injection, schedule: Q01DX009 (ip), vehicle: saline with Tween-80 106 % of control

COC(=O)C(C(N)=O)C(=O)C1C(=O)N(c2ccccc2)N=C1C (stereo not given)
inactive: [14] 97 % of control | [12] 93 % of control | [13] 93 % of control

COc1cc(Br)c(CCNC(=O)Cc2cc(OC)c(OC)cc2Br)cc1OC
inactive: [6] 91 % of control | [7] 86 % of control

Cc1ccc2c(ccc3nc(N)nc(N)c32)c1
inactive: endpoint: mean survival time, dose: 5.0 mg/kg/injection, schedule: Q01DX001 (ip), vehicle: saline 100 % of control | endpoint: mean survival time, dose: 10.0 mg/kg/injection, schedule: Q01DX001 (ip), vehicle: saline 89 % of control | endpoint: mean survival time, dose: 20.0 mg/kg/injection, schedule: Q01DX001 (ip), vehicle: saline 95 % of control | endpoint: mean survival time, dose: 40.0 mg/kg/injection, schedule: Q01DX001 (ip), vehicle: saline 95 % of control

CC(C)(C)C1(C#N)C(=O)C2CCCCC21 (stereo not given)
inactive: endpoint: mean survival time, dose: 12.5 mg/kg/injection, schedule: Q04DX002 (ip), vehicle: saline with Tween-80 105 % of control | endpoint: mean survival time, dose: 25.0 mg/kg/injection, schedule: Q04DX002 (ip), vehicle: saline with Tween-80 97 % of control | [14] 94 % of control

Cc1ccc([N+](=O)[O-])cc1NC(=O)COc1cc(Cl)c(Cl)cc1Cl
inactive: [6] 110 % of control | [7] 90 % of control | [8] 90 % of control

CCCCc1nc2c(O)ccc(O)c2nc1C
inactive: endpoint: mean survival time, dose: 18.75 mg/kg/injection, schedule: Q01DX009 (ip), vehicle: other 96 % of control | endpoint: mean survival time, dose: 37.5 mg/kg/injection, schedule: Q01DX009 (ip), vehicle: other 94 % of control | endpoint: mean survival time, dose: 75.0 mg/kg/injection, schedule: Q01DX009 (ip), vehicle: other 90 % of control

COc1ccc(NC(=O)Oc2ccc(Cl)cc2Cl)c(Cl)c1
inactive: endpoint: mean survival time, dose: 25.0 mg/kg/injection, schedule: Q01DX009 (ip), vehicle: Klucel (hydroxypropylcellulose) (HPC) 95 % of control | endpoint: mean survival time, dose: 50.0 mg/kg/injection, schedule: Q01DX009 (ip), vehicle: Klucel (hydroxypropylcellulose) (HPC) 95 % of control and 107 % of control | endpoint: mean survival time, dose: 100.0 mg/kg/injection, schedule: Q01DX009 (ip), vehicle: Klucel (hydroxypropylcellulose) (HPC) 98 % of control and 104 % of control | endpoint: mean survival time, dose: 100.0 mg/kg/injection, schedule: Q04DX003 (ip), vehicle: Klucel (hydroxypropylcellulose) (HPC) 98 % of control | endpoint: mean survival time, dose: 200.0 mg/kg/injection, schedule: Q01DX009 (ip), vehicle: Klucel (hydroxypropylcellulose) (HPC) 120 % of control and 102 % of control | endpoint: mean survival time, dose: 200.0 mg/kg/injection, schedule: Q04DX003 (ip), vehicle: Klucel (hydroxypropylcellulose) (HPC) 104 % of control | endpoint: mean survival time, dose: 400.0 mg/kg/injection, schedule: Q04DX003 (ip), vehicle: Klucel (hydroxypropylcellulose) (HPC) 112 % of control

CN(C)c1ccc(/C=N\O)c2c1CCC2
inactive: [6] 102 % of control | [7] 102 % of control | [8] 100 % of control

O=C(O)C1C2CCCCC21 (stereo not given)
inactive: [3] 105 % of control | [6] 98 % of control | [4] 94 % of control | [7] 100 % of control | [5] 101 % of control | [8] 94 % of control

N#Cc1cccc[n+]1Cc1ccc([N+](=O)[O-])cc1
inactive: [15] 108 % of control | [16] 101 % of control

CCC(C)CC(=O)O (stereo not given)
inactive: [9] 95 % of control | endpoint: mean survival time, dose: 100.0 mg/kg/injection, schedule: Q04DX003 (ip), vehicle: saline 102 % of control | [10] 98 % of control | endpoint: mean survival time, dose: 200.0 mg/kg/injection, schedule: Q04DX003 (ip), vehicle: saline 102 % of control | [11] 96 % of control | endpoint: mean survival time, dose: 400.0 mg/kg/injection, schedule: Q04DX003 (ip), vehicle: saline 97 % of control

CC1(C)CC(C)(Br)C(Br)C(=O)C1C(O)(C(F)(F)F)C(F)(F)F (stereo not given)
inactive: [6] 100 % of control | [7] 97 % of control | [8] 100 % of control

O=C(O)c1ccccc1/C=C/c1ccc([N+](=O)[O-])cc1
inactive: [15] 98 % of control | [16] 95 % of control | [3] 104 % of control

O=[N+]([O-])c1ccc2c(c1)COCO2
inactive: [3] 97 % of control | [4] 97 % of control | [5] 96 % of control

CCOC(=O)CN/N=C(\N)CSS(=O)(=O)O
inactive: [6] 97 % of control | [7] 97 % of control | [8] 100 % of control

O=Cc1ccc(C=O)cc1
inactive: [3] 104 % of control | [4] 98 % of control | [5] 96 % of control

Nc1c(Br)cc2c(c1Br)Cc1cc(Cl)ccc1-2
inactive: [15] 107 % of control | endpoint: mean survival time, dose: 25.0 mg/kg/injection, schedule: Q04DX003 (ip), vehicle: saline with Tween-80 111 % of control | [16] 103 % of control | endpoint: mean survival time, dose: 50.0 mg/kg/injection, schedule: Q04DX003 (ip), vehicle: saline with Tween-80 103 % of control | [3] 102 % of control | [6] 105 % of control | [7] 100 % of control | [8] 86 % of control
